Results taken from US20260297542A1, “HERBICIDE RESISTANT PLANTS” (SYNGENTA CROP PROTECTION AG, priority 2023, published 2026).
Residue numbers refer to the chain shown, from its start.

What was measured:
Assay in all cases: E. coli hemG growth inhibition by herbicide, AtPPO1 variant
Assay type in all cases: cell-based
Details in all cases: read-out: percentage growth inhibition
[1] = molecular target: T1, AtPPO1 F478R (Arabidopsis thaliana, UniProt P55826, F478R)
T1 construct: expressed in transfected cells; host or cells: E. coli BL21(DE3) hemG, pET24a plasmid
T1 sequence (P55826 35-537 F478R): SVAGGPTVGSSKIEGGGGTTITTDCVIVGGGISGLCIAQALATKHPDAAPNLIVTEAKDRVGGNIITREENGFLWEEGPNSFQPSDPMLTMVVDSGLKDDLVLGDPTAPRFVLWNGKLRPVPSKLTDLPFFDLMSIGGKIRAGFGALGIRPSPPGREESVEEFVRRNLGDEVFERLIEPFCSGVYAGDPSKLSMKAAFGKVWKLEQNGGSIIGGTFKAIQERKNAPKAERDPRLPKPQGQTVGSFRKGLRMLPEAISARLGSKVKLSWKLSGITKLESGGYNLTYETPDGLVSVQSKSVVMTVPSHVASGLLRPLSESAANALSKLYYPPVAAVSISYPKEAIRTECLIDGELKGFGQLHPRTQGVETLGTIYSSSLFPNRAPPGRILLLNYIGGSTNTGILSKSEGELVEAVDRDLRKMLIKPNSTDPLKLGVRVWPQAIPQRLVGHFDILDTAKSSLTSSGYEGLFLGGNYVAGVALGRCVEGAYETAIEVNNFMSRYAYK
Method in brief: (§1)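 Variant plasmids were transformed into hemG-null BL21(DE3) and precultured 24 h with hematin. Washed cells were diluted 1:100 into Terrific broth containing 0.1 mM IPTG and herbicide (6.25 ppm 0 or E; 0.78 ppm B) or DMSO. After 24 h at 37° C, OD600 gave percent inhibition.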

[2] = molecular target: T2, AtPPO1 G64A (Arabidopsis thaliana, UniProt P55826, G64A)
T2 construct: expressed in transfected cells; host or cells: E. coli BL21(DE3) hemG (hemG replaced by CmR), pET24a plasmid
T2 sequence (P55826 35-537 G64A): T1 sequence (P55826 35-537 F478R) with G30A, R444F
Method in brief: as §1

[3] = molecular target: T3, AtPPO1 R449K (Arabidopsis thaliana, UniProt P55826, R449K)
T3 construct: expressed in transfected cells; host or cells: E. coli BL21(DE3) hemG, pET24a plasmid
T3 sequence (P55826 35-537 R449K): T1 sequence (P55826 35-537 F478R) with R415K, R444F
Method in brief: as §1

[4] = molecular target: T4, AtPPO1 Y361Q (Arabidopsis thaliana, UniProt P55826, Y361Q)
T4 construct: expressed in transfected cells; host or cells: E. coli BL21(DE3) hemG (pET24a, T7 promoter)
T4 sequence (P55826 35-537 Y361Q): T1 sequence (P55826 35-537 F478R) with Y327Q, R444F
Method in brief: as §1

**Q.** With `CC(C)N(C)S(=O)(=O)NC(=O)c1cc(-n2c(=O)cc(C(F)(F)F)n(C)c2=O)c(F)cc1Cl` [Herbicide E, saflufenacil] as the molecule, how does the inhibition at 6.25 ppm [1] read?
**A.** 61%

**Q.** What about the inhibition at 6.25 ppm [2] of the same molecule?
**A.** 34%

**Q.** And the inhibition at 6.25 ppm [3]?
**A.** 68%

**Q.** And the inhibition at 6.25 ppm [4]?
**A.** 0%

**Q.** `C#CCN1C(=O)C(F)(F)Oc2cc(F)c(-n3c(=O)n(C)c(=S)n(C)c3=O)cc21` [Herbicide B, trifludimoxazin] was tested. Which inhibition at 0.78 ppm [1] did it give?
**A.** 23%

**Q.** And the inhibition at 0.78 ppm [2]?
**A.** 36%

**Q.** And the inhibition at 0.78 ppm [3]?
**A.** 35%

**Q.** What about the inhibition at 0.78 ppm [4] of the same molecule?
**A.** 19%

**Q.** `CCOC(=O)[C@]1(C)CC(c2cc(-n3c(=O)n(C)c(=S)n(C)c3=O)c(F)cc2Cl)=NO1` [Herbicide D, ethyl (5S)-3-[2-chloro-5-(3,5-dimethyl-2,6-dioxo-4-thioxo-1,3,5-triazinan-1-yl)-4-fluoro-phenyl]-5-methyl-4H-isoxazole-5-carboxylate] was tested. Which inhibition at 6.25 ppm [1] did it give?
**A.** 30%

**Q.** What about the inhibition at 6.25 ppm [2] of the same molecule?
**A.** 38%

**Q.** And the inhibition at 6.25 ppm [3]?
**A.** 37%

**Q.** And the inhibition at 6.25 ppm [4]?
**A.** 32%
